Literature values, collected in US20040224916A1 (priority 2003, published 2004).
Read-outs that look alike come from different tables or passages of the source.

Assays:
HIV-1 = settings: in vitro, with agents acting at steps other than reverse transcription, including recombinant soluble CD4, castanospermine, recombinant interferon-α
[1] = dogs and rhesus monkeys

Row | SMILES | antiviral activity in combination (HIV-1) | effectiveness of S-configuration (at phosphorus) diastereomer relative to R-configuration diastereomer (HIV) | effectiveness relative to tenofovir against HIV in culture (HIV; as stated in b46) | effectiveness relative to tenofovir against HIV in culture (HIV; as stated in b47) | stability in plasma [1]
1 | Cc1cn([C@H]2C[C@H](N=[N+]=[N-])[C@@H](CO)O2)c(=O)[nH]c1=O [AZT, 3′-azido, 3′-deoxythymidine] | synergistic antiviral activity |  |  |  | 
2 | CC(C)OC(=O)[C@H](C)N[P@](=O)(CO[C@H](C)Cn1cnc2c(N)ncnc21)Oc1ccccc1 [GS-7340, 9-[(R)-2-[[(S)-[[(S)-1-(isopropoxycarbonyl)ethyl]amino]phenoxyphosphinyl]methoxy]propyl]adenine] |  | 10 fold | 1000 times | 100 fold | stable in plasma
